± gives the standard deviation of the reports.
Assays:
[1] = not given; remark: listed apart in the source
[2] = not given; remark: listed apart in the source

For `*CC(*)OCCC` (repeat unit) [Poly(propyl vinyl ether)], the glass transition temperature was -49 °C.

In the case of `*CC(*)OC(=O)C=Cc1ccccc1` (repeat unit) [poly(vinyl cinnamate)], the glass transition temperature [1] is reported as 77 °C.

With `*CC(*)C(=O)OC(C)CCCCC` (repeat unit) [Poly(2-heptyl acrylate) ] the glass transition temperature [2] was -39 ± 1.4 °C.

`*CC(*)(C)C(=O)OCC(CC)CC` (repeat unit) [Poly(2-ethylbutyl methacrylate) ] showed a glass transition temperature [2] of 10.4 ± 0.7 °C.

In the case of `*Oc1ccc(Oc2ccc(Oc3ccc4c(c3)C(=O)N(CCCCCCN3C(=O)c5ccc(*)cc5C3=O)C4=O)cc2)cc1` (repeat unit) [Polyetherimide 1 ], the glass transition temperature [2] is reported as 126.4 ± 2.1 °C.

In the case of `*CC(*)c1ccc(CO)cc1` (repeat unit) [Poly(p-hydroxymethyl styrene) ], the glass transition temperature [2] is reported as 139 ± 1.4 °C.

`*CC(*)OC(=O)CCC` (repeat unit) [Poly(vinyl butyrate) ] gave a glass transition temperature [2] of 2 ± 4.2 °C.
